Data published in paper PMC6801739, “Antitumor Activity of a Novel Tyrosine Kinase Inhibitor AIU2001 Due to Abrogation of the DNA Damage Repair in Non-Small Cell Lung Cancer Cells” (International Journal of Molecular Sciences, 2019).
pIC50: −log10 of the molar value.

Experiments:
c-KIT = biological target: T1, c-KIT (Homo sapiens, UniProt P10721); assay: In vitro kinase assay, IC50 (Reaction Biology Corp.); assay type: biochemical
T1 construct: purchased Eurofins Pharma Discovery (KinaseProfiler); IC50 values by Reaction Biology Corp
T1 sequence (P10721 26-976): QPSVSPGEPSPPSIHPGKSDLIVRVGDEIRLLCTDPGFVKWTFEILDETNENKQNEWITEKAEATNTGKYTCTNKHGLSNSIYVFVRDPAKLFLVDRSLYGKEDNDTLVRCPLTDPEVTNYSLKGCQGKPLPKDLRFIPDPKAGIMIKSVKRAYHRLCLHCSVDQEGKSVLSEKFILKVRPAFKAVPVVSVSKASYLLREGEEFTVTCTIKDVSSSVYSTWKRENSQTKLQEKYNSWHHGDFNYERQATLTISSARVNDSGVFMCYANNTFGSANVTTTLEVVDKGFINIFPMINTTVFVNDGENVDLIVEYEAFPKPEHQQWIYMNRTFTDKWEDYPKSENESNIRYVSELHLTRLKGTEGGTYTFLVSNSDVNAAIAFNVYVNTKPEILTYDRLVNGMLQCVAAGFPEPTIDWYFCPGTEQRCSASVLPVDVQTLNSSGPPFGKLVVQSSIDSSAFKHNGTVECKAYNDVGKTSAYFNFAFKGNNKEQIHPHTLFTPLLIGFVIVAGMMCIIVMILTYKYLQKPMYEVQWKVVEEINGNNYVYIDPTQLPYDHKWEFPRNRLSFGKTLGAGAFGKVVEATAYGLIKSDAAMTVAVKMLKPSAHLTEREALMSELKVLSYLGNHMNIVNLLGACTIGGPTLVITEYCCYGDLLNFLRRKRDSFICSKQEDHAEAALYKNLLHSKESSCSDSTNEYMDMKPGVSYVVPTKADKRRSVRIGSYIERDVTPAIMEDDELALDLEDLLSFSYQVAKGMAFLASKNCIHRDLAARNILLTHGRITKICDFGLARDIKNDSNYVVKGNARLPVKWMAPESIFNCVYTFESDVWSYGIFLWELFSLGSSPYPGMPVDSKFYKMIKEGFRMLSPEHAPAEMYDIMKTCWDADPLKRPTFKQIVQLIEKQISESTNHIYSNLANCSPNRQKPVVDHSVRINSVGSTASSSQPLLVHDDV

ALK = biological target: T2, ALK (Homo sapiens, UniProt Q9UM73); assay: Kinase profiling at 10 μM (Eurofins); assay type: biochemical; conditions: read-out: Inhibitory activity
T2 construct: purchased Eurofins Pharma Discovery (KinaseProfiler); IC50 values by Reaction Biology Corp

B-RAF = biological target: T3, B-RAF (Homo sapiens, UniProt P15056); assay: Kinase profiling at 10 μM (Eurofins); assay type: biochemical; conditions: read-out: Inhibitory activity
T3 construct: purchased Eurofins Pharma Discovery (KinaseProfiler); IC50 values by Reaction Biology Corp

CDK1/cyclinB = biological target: T4, CDK1/cyclinB (Homo sapiens, UniProt P06493); assay: Kinase profiling at 10 μM (Eurofins); assay type: biochemical; conditions: read-out: Inhibitory activity
T4 construct: purchased Eurofins Pharma Discovery (KinaseProfiler); IC50 values by Reaction Biology Corp

CHK1 = biological target: T5, CHK1 (Homo sapiens, UniProt O14757); assay: Kinase profiling at 10 μM (Eurofins); assay type: biochemical; conditions: read-out: Inhibitory activity
T5 construct: purchased Eurofins Pharma Discovery (KinaseProfiler); IC50 values by Reaction Biology Corp
T5 sequence (O14757 whole entry): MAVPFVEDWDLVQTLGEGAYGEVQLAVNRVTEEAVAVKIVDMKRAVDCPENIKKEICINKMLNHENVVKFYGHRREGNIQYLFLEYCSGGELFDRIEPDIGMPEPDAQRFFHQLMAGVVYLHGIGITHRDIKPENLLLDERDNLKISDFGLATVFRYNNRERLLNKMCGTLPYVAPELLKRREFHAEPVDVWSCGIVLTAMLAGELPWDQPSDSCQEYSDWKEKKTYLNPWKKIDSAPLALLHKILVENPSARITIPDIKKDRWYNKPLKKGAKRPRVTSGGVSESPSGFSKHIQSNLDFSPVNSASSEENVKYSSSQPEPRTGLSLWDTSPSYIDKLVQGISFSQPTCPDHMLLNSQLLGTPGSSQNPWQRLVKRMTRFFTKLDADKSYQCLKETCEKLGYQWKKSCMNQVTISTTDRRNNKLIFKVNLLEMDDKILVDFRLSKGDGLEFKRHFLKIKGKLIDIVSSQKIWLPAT

CK1γ1 = biological target: T6, CK1γ1 (Homo sapiens, UniProt Q9HCP0); assay: Kinase profiling at 10 μM (Eurofins); assay type: biochemical; conditions: read-out: Inhibitory activity
T6 construct: purchased Eurofins Pharma Discovery (KinaseProfiler); IC50 values by Reaction Biology Corp
T6 sequence (Q9HCP0 whole entry): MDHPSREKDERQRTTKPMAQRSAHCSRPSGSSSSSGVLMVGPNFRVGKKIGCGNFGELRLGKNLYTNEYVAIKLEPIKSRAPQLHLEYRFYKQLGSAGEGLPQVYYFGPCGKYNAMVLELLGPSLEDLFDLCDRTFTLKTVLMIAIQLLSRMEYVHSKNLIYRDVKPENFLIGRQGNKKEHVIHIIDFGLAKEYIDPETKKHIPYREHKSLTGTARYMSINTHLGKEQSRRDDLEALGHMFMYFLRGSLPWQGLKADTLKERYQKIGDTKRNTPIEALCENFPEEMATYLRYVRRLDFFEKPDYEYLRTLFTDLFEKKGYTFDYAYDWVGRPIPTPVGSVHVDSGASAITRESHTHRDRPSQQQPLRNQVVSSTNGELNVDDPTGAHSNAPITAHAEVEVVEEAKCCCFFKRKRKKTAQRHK

CK2 = biological target: T7, CK2 (Homo sapiens, UniProt P68400); assay: Kinase profiling at 10 μM (Eurofins); assay type: biochemical; conditions: read-out: Inhibitory activity
T7 construct: purchased Eurofins Pharma Discovery (KinaseProfiler); IC50 values by Reaction Biology Corp
T7 sequence (P68400 whole entry): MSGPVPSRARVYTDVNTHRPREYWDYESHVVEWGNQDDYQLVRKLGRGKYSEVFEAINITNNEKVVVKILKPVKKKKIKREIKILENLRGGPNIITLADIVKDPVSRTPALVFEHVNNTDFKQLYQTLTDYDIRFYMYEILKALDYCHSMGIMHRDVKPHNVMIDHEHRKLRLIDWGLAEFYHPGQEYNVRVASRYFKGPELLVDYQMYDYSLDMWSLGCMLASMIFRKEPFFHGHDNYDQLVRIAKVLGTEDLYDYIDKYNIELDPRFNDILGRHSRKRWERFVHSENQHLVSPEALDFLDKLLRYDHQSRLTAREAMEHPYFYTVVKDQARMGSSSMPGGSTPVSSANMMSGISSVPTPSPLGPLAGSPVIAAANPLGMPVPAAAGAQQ
T7 sequence (P67870 whole entry partner): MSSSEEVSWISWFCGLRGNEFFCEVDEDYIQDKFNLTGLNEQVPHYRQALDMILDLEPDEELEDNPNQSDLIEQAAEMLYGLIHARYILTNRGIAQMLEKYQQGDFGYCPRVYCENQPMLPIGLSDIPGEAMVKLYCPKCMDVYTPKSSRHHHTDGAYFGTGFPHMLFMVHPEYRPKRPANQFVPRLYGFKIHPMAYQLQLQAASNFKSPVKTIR

c-KIT (D816H) = biological target: T8, c-KIT (D816H) (Homo sapiens, UniProt P10721, D816H); assay: Kinase profiling at 10 μM (Eurofins); assay type: biochemical; conditions: read-out: Inhibitory activity
T8 construct: purchased Eurofins Pharma Discovery (KinaseProfiler); IC50 values by Reaction Biology Corp
T8 sequence (P10721 26-976 D816H): as the sequence (P10721 26-976) above, with D791H counted along it

c-KIT (V560G) = biological target: T9, c-KIT (V560G) (Homo sapiens, UniProt P10721, V560G); assay: Kinase profiling at 10 μM (Eurofins); assay type: biochemical; conditions: read-out: Inhibitory activity
T9 construct: purchased Eurofins Pharma Discovery (KinaseProfiler); IC50 values by Reaction Biology Corp
T9 sequence (P10721 26-976 V560G): as the sequence (P10721 26-976) above, with V535G counted along it

cSRC = biological target: T10, cSRC (Homo sapiens, UniProt P12931); assay: Kinase profiling at 10 μM (Eurofins); assay type: biochemical; conditions: read-out: Inhibitory activity
T10 construct: purchased Eurofins Pharma Discovery (KinaseProfiler); IC50 values by Reaction Biology Corp
T10 sequence (P12931 whole entry): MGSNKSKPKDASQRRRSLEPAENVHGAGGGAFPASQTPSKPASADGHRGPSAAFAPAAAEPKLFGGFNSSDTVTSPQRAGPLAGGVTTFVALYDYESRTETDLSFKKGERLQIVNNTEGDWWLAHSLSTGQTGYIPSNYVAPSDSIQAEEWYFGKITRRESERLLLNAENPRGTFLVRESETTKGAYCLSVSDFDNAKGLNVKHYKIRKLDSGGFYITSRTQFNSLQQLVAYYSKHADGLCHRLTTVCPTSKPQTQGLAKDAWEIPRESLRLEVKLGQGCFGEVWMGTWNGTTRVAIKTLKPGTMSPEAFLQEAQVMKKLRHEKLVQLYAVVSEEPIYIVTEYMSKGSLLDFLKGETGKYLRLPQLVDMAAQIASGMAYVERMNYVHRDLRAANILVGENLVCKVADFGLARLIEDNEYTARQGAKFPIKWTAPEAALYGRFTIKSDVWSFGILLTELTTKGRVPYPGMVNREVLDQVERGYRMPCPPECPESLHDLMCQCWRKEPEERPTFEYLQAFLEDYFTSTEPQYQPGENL

EPHB4 = biological target: T11, EPHB4 (Homo sapiens, UniProt P54760); assay: Kinase profiling at 10 μM (Eurofins); assay type: biochemical; conditions: read-out: Inhibitory activity
T11 construct: purchased Eurofins Pharma Discovery (KinaseProfiler); IC50 values by Reaction Biology Corp

FLT3 = biological target: T12, FLT3 (Homo sapiens, UniProt P36888); assay: Kinase profiling at 10 μM (Eurofins); assay type: biochemical; conditions: read-out: Inhibitory activity
T12 construct: purchased Eurofins Pharma Discovery (KinaseProfiler); IC50 values by Reaction Biology Corp
T12 sequence (P36888 27-993): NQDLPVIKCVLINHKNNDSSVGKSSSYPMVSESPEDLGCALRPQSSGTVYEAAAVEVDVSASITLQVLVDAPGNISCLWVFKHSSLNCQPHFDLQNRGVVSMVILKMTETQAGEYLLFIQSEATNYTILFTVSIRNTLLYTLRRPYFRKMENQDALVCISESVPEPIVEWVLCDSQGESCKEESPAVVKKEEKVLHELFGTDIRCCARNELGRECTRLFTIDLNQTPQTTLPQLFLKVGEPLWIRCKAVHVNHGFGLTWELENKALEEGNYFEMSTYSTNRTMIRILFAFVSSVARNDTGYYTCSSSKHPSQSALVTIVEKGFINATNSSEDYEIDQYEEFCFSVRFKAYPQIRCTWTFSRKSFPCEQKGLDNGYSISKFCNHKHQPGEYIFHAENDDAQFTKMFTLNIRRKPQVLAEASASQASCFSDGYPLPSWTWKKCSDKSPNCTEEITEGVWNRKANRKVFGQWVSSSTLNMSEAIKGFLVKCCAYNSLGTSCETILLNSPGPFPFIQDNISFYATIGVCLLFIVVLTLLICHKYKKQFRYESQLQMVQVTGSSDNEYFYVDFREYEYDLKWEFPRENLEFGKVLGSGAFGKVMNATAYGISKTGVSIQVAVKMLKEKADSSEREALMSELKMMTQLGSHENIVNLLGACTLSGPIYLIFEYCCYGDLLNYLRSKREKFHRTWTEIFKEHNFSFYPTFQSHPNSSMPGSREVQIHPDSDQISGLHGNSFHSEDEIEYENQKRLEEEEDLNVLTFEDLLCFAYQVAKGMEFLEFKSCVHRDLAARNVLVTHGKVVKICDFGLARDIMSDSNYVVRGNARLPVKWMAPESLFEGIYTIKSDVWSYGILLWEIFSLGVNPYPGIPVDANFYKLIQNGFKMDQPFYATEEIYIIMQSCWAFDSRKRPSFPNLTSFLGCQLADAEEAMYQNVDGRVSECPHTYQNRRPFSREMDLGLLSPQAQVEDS

IGF-1R = biological target: T13, IGF-1R (Homo sapiens, UniProt P08069); assay: Kinase profiling at 10 μM (Eurofins); assay type: biochemical; conditions: read-out: Inhibitory activity
T13 construct: purchased Eurofins Pharma Discovery (KinaseProfiler); IC50 values by Reaction Biology Corp

MAPK2 = biological target: T14, MAPK2 (Homo sapiens, UniProt P28482); assay: Kinase profiling at 10 μM (Eurofins); assay type: biochemical; conditions: read-out: Inhibitory activity
T14 construct: purchased Eurofins Pharma Discovery (KinaseProfiler); IC50 values by Reaction Biology Corp
T14 sequence (P28482 whole entry): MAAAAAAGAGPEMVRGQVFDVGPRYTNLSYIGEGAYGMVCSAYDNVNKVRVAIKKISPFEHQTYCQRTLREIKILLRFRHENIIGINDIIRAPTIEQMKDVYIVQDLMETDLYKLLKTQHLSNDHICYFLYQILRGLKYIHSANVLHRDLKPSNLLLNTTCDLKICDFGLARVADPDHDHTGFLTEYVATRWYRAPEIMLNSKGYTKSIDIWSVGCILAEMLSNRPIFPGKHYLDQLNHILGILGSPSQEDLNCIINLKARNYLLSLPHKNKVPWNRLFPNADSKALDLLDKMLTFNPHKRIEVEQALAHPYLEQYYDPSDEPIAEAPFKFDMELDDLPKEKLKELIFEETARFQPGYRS

PDK1 = biological target: T15, PDK1 (Homo sapiens, UniProt O15530); assay: Kinase profiling at 10 μM (Eurofins); assay type: biochemical; conditions: read-out: Inhibitory activity
T15 construct: purchased Eurofins Pharma Discovery (KinaseProfiler); IC50 values by Reaction Biology Corp
T15 sequence (O15530 whole entry): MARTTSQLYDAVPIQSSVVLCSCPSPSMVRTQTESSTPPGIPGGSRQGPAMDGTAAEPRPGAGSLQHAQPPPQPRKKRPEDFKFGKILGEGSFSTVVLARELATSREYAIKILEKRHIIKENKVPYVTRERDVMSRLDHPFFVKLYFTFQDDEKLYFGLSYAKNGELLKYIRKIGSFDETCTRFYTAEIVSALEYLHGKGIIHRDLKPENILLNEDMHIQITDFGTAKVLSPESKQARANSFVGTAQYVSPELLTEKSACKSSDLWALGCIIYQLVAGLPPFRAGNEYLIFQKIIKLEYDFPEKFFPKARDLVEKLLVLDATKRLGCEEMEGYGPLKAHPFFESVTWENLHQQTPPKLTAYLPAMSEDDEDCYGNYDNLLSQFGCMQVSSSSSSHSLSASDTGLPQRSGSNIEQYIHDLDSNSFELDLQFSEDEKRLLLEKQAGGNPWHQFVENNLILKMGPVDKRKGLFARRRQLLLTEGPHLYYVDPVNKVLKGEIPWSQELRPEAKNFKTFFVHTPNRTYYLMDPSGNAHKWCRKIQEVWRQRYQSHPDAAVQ

PKCα = biological target: T16, PKCα (Homo sapiens, UniProt P17252); assay: Kinase profiling at 10 μM (Eurofins); assay type: biochemical; conditions: read-out: Inhibitory activity
T16 construct: purchased Eurofins Pharma Discovery (KinaseProfiler); IC50 values by Reaction Biology Corp

ROCK-I = biological target: T17, ROCK-I (Homo sapiens, UniProt Q13464); assay: Kinase profiling at 10 μM (Eurofins); assay type: biochemical; conditions: read-out: Inhibitory activity
T17 construct: purchased Eurofins Pharma Discovery (KinaseProfiler); IC50 values by Reaction Biology Corp

A549 xenografts = assay: A549 tumor xenograft mouse model; assay type: in vivo, BALB/c nu/nu mice; conditions: 20 mg/kg i.p. once per two or three days, five times
Description: We next determined whether the antitumor effect associated with in vitro AIU2001 treatment could be translated into an in vivo xenograft mouse model. Mice were subcutaneously (s.c.) implanted with A549 cells in the right hind leg. When the tumors were palpable (average […]: 150 mm^3; 14days post-implantation), mice were intraperitoneally (i.p.) administered 20 mg/kg AIU2001 or DMSO once per two or three days for five times in total. […] At necropsy, the average tumor weight of mice treated with AIU2001 or DMSO was 1.2 g or 2.8 g, respectively (Figure 2B,C).
Figure 2 AIU2001 inhibited tumor growth of A549 xenografts in nude mice. (A) A549 cells were s.c. injected into the thigh of the right hind leg of BALB/c nu/nu mice (n = 4/group). Two weeks after tumor cell injection, AIU2001 (20 mg/kg) or DMSO was administered (i.p.) once per two or three days for five times in total. The longest (L) and shortest (W) tumor axes were measured, and tumor volume (mm^3) was calculated as L × W^2/2. The data shown represent the average tumor volume (* p < 0.05). (B) The weight of the resected tumors was measured at the end of the experiment (*** p < 0.001). (C) Image of resected tumors from mice. (D) The body weights of A549 tumor xenograft mice were determined twice weekly during the experiments.
A549 human lung cancer cell xenografts were initially established by s.c. implanting 1 × 10^6 cultured cells into the thigh of the right hind leg of six week old mice. When tumor volumes had reached approximately 150 mm^3, AIU2001 ([…]) was administered i.p. once per two or three days for five times in total. All animal experiments were reviewed and approved by the Institutional Animal Care & Use Committee of Korea Institute of Radiological and Medical Sciences (kirams2018-0063, 6 December 2018).
Two axes of the tumor (L, longest axis; W, shortest axis) were measured twice per week after irradiation using Vernier calipers. Tumor volume was calculated as (L × W^2)/2 (mm^3).

A549 cells [1] = assay: Immunoblot of cleaved caspase-3 and PARP-1; assay type: cell-based, human; conditions: 48 h
Description: (§1) Cell lysates were prepared by extracting proteins with TNN buffer (40 mM Tris-Cl pH 8.0, 0.2% NP-40, 120 mM NaCl) or radioimmunoprecipitation assay (RIPA) lysis buffer (Millipore, Billerica MA, USA) supplemented with a protease inhibitor cocktail (Thermo Fisher Scientific, Rockford, IL, USA). Equal amounts of proteins were separated using SDS-PAGE on 8–13% gels, and transferred to nitrocellulose membranes (Bio-Rad, Hercules, CA, USA). The membranes were blocked with 5% skim milk in Tris-buffered saline-Tween 20 (TBST) (150 mM NaCl, 10 mM Tris, 0.2% Tween20), followed by overnight incubation with primary antibodies at 4 °C. The blots were developed using peroxidase-conjugated secondary antibody and the immunoreactive proteins were visualized using enhanced chemiluminescence (ECL) reagents, according to the manufacturer’s recommendations (Amersham, GE Healthcare, Buckingamshire, UK). The protein bands were visualized using a digital imaging system (ImageQuant LAS 4000 mini; GE Healthcare, UK). The protein levels were analyzed using Image J software (National Institutes of Health, Bethesda, MD, USA). Experiments were repeated at least thrice.

H1299 cells [2] = assay: Immunoblot of cleaved caspase-3 and PARP-1; assay type: cell-based, human; conditions: 48 h
Description: as §1

A549 cells [3] = assay: Cell cycle analysis (PI, flow cytometry); assay type: cell-based, human; conditions: 5 μM
Description: (§2) Samples were collected at the indicated time points and fixed in 70% cold ethanol overnight. For cell cycle analysis, the fixed cells were treated with RNase for 20 min before addition of 50 μg/mL PI and analyzed using FACS Calibur™ (BD Biosciences, San Jose, CA, USA).

H1299 cells [4] = assay: Cell cycle analysis (PI, flow cytometry); assay type: cell-based, human; conditions: 5 μM
Description: as §2

`Brc1ccc(-c2cnc(Nc3cccc4ccccc34)o2)cc1` [AIU2001, 5-(4-bromophenyl)-N-(naphthalen-1-yl) oxazol-2-amine] was tested. Which pIC50 (c-KIT) did it give?
The pIC50 was 6.65.

What about the inhibition at 10 µM (ALK) of the same compound?
The inhibition at 10 µM was 0%.

What about the inhibition at 10 µM (B-RAF) of the same compound?
The inhibition at 10 µM was 0%.

And the inhibition at 10 µM (CDK1/cyclinB)?
The inhibition at 10 µM was 38%.

And the inhibition at 10 µM (CHK1)?
The inhibition at 10 µM was 0%.

And the inhibition at 10 µM (CK1γ1)?
The inhibition at 10 µM was 37%.

What about the inhibition at 10 µM (CK2) of the same compound?
Its inhibition at 10 µM is 10%.

What about the inhibition at 10 µM (c-KIT (D816H)) of the same compound?
Its inhibition at 10 µM is 48%.

What about the inhibition at 10 µM (c-KIT (V560G)) of the same compound?
The inhibition at 10 µM was no less than 75%.

And the inhibition at 10 µM (cSRC)?
The inhibition at 10 µM was 22%.

And the inhibition at 10 µM (EPHB4)?
The inhibition at 10 µM was 10%.

And the inhibition at 10 µM (FLT3)?
Its inhibition at 10 µM is no less than 75%.

And the inhibition at 10 µM (IGF-1R)?
Its inhibition at 10 µM is 0%.

What about the inhibition at 10 µM (MAPK2) of the same compound?
Its inhibition at 10 µM is 19%.

And the inhibition at 10 µM (PDK1)?
The inhibition at 10 µM was 19%.

And the inhibition at 10 µM (PKCα)?
Its inhibition at 10 µM is 9%.

What about the inhibition at 10 µM (ROCK-I) of the same compound?
Its inhibition at 10 µM is 0%.

What about the “Average tumor weight at necropsy” value (A549 xenografts) of the same compound?
Its value is 1.2 g.

What about the “Body weight versus control mice” value (A549 xenografts) of the same compound?
The value was “did not differ”.

What about the “Inhibition of tumor growth compared to the vehicle” value (A549 xenografts) of the same compound?
Its value is 48.3%.

What about the “Cleavage of caspase-3 and PARP-1” value (A549 cells [1]) of the same compound?
Its value is “increased cleavage”.

What about the “Cleavage of caspase-3 and PARP-1” value (H1299 cells [2]) of the same compound?
Its value is “increased cleavage”.

And the Cell cycle effect (A549 cells [3]; 3 h, 6 h or 24 h)?
The Cell cycle effect was “G2/M phase arrest”.

And the “Cells in the sub-G1 phase” value (A549 cells [3]; 24 h)?
The value was 3.3%.

And the Cell cycle effect (H1299 cells [4]; 3 h, 6 h or 24 h)?
Its Cell cycle effect is “G2/M phase arrest”.

And the “Cells in the sub-G1 phase” value (H1299 cells [4]; 24 h)?
The value was 23.1%.
